These results are taken from patent US11490618B2, “Preservation compositions” (Conopco, Inc., priority 2018, dated 2022).

SMILES strings stand for the structures.

In test [1] the test system is Pool 1 Gram negative non-fermenting bacteria: Pseudomonas aeruginosa, Pseudomonas putida & Burkholderia cepacia. The experiment in a line: Liquid broth checkerboard assay (MIC, ΣFIC synergy), microorganism Pool 1. The class given is cell-based. Conditions: tryptic soy broth, 30° C., 24 hours, ΣFIC<1 synergistic. The text has this: (§1) The differing behaviours of inhibitory antimicrobials in isolation and mixtures have been widely explored using the concept of the Fractional Concentration and Fractional Inhibitory Concentration (FIC). See for instance J R W Lambert and R Lambert, J. Appl. Microbiol 95, 734 (2003); T. Jadavji, C G Prober and R Cheung, Antimicrobial Agents and Chemotherapy 26, 91 (1984), and WO 2004/006876. These parameters can be defined as follows: FC(component a)=Concentration of component a tested in the mixture/MIC(component a tested as a single active) FIC(component a)=MIC(component a tested in the mixture)/MIC(component a tested as a single active)
(§2) These relationships can be expressed mathematically by summing the fractional MIC values for all the components present in the mixture to give the “fractional inhibitory index”: ΣFIC=FIC(component 1)+FIC(component 2)
(§3) ΣFIC≥1 corresponds to additive or antagonistic activity
(§4) ΣFIC<1 corresponds to synergistic activity
(§5) Liquid broth assays (MIC and checkerboard) were conducted to identify the minimum concentration(s) of individual and binary combinations of preservation chemicals. A modified methodology to ISO 20776-1:2006 was utilised for the screening as follows. Stock solutions of preservation chemicals and tryptic soy broth were inoculated with 1-5×10^6 microorganisms and incubated at 30° C. for 24 hours, after which optical densities at OD600 nm were measured. […] Preservation chemicals were screened at a concentration range of 0.0156-2%.

In test [2] the test system is Pool 2 Gram negative fermenting bacteria: Enterobacter gergoviae & Klebsiella species. The experiment in a line: Liquid broth checkerboard assay (MIC, ΣFIC synergy), microorganism Pool 2. The class given is cell-based. Conditions: tryptic soy broth, 30° C., 24 hours, ΣFIC<1 synergistic.
Description: as §1, §2, §3, §4, §5

The mark [3] stands for this setting: binary combination with Citric Acid.
The mark [4] stands for this setting: binary combination with Itaconic acid.

Take `CC(C)=CCC/C(C)=C/CO` [Geraniol]: the ΣFIC synergy score in test [1] (setting [3]) amounted to 0.75; in test [1] (setting [4]), 0.31; in test [2] (setting [3]), 1.06; in test [2] (setting [4]), 0.5.

For the compound `C=C(C)[C@@H]1CC=C(CO)CC1` [Perillyl alcohol], the ΣFIC synergy score came to 0.38 in test [1] (setting [3]), 0.38 in test [1] (setting [4]), 0.5 in test [2] (setting [3]) and 0.38 in test [2] (setting [4]).
